Converted amounts (≈) assume the structure as drawn.
Experiments:
[1] = Metabolic stability in human liver microsomes (HLM); assay type: in vitro ADME; details: n = 1 or average (n = 2-3)
Protocol: Metabolic stability in HLM was measured as described in J Comput Aided Mol Des 2015, 29, 795.

Rat Hepatocytes (rHep) = assay: Metabolic stability in rat hepatocytes (rHep); assay type: in vitro ADME; details: n = 1 or geometric mean (n = 2-3)
Protocol: Metabolic stability in rat hepatocytes was measured as described in J Comput Aided Mol Des 2015, 29, 795.

Kinetic solubility = assay type: physicochemical; details: kinetic from dmso stock, n = 1 or average (n = 2-4)
Protocol: Kinetic solubility was measured as described in Comput Aided Mol Des 2015, 29, 795.

[2] = biological target: T1, Prolyl endopeptidase, Prolyl Oligopeptidase (hPREP) (Homo sapiens, UniProt P48147); assay: biochemical
T1 sequence (P48147 1-710): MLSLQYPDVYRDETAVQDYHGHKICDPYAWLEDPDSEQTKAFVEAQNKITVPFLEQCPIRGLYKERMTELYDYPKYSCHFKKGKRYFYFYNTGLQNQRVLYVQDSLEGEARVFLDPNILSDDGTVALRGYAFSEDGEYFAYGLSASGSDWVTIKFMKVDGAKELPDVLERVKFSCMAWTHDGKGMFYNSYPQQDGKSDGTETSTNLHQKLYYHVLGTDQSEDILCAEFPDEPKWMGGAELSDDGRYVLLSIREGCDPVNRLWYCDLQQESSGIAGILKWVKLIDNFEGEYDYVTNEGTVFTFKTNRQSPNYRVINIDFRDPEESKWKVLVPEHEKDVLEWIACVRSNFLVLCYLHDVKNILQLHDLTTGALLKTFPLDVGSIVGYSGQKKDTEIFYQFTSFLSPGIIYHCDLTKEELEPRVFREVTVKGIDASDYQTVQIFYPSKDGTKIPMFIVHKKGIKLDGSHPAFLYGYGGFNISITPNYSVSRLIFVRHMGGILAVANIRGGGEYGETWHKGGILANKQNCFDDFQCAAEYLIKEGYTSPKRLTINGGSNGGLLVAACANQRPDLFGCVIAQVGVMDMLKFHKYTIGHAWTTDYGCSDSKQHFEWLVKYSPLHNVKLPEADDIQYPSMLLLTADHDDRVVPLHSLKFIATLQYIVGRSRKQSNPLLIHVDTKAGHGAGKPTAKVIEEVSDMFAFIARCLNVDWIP

hFAP (M39-A757) = biological target: T2, hFAP (M39-A757) (Homo sapiens, UniProt Q12884); assay: biochemical
T2 sequence (Q12884 39-757): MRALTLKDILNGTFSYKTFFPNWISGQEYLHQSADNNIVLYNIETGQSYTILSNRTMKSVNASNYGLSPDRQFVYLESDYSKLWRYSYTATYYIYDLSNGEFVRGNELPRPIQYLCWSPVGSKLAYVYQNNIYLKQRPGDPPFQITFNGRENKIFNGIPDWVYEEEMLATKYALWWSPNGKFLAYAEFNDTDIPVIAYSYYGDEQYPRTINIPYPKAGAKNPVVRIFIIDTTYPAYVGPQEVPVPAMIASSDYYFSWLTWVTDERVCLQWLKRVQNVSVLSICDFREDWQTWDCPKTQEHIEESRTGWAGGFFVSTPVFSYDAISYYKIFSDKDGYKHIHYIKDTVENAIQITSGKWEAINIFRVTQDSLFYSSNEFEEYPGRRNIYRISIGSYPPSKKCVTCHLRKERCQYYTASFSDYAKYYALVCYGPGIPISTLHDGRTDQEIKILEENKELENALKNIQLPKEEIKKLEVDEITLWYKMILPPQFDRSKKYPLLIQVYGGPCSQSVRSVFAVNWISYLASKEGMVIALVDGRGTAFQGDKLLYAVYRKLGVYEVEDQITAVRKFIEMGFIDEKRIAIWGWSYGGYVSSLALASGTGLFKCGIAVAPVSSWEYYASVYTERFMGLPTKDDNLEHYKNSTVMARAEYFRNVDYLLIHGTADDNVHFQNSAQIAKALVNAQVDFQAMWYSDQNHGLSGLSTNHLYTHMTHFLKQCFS

hFAP = biological target: T3, hFAP (Homo sapiens, UniProt Q12884); assay: biochemical
T3 sequence (Q12884 38-760): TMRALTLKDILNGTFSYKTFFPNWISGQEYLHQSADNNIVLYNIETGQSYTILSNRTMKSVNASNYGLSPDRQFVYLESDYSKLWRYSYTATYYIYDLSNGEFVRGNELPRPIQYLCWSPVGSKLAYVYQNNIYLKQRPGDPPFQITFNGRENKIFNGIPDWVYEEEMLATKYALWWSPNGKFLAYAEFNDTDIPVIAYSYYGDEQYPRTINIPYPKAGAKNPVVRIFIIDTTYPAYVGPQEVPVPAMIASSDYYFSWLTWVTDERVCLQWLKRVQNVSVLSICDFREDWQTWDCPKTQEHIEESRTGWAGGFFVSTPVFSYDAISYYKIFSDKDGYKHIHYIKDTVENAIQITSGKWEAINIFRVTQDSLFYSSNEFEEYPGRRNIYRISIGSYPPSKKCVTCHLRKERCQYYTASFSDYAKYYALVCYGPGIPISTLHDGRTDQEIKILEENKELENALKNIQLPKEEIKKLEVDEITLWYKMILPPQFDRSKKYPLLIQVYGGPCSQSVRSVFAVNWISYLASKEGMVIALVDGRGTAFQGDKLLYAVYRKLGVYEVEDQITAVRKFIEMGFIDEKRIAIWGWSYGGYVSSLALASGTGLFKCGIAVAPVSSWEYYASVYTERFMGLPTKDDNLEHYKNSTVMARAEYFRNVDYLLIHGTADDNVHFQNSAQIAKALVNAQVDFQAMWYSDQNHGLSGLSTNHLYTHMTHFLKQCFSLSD
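For Kd in this document: surface plasmon resonance direct binding to hFAP amine-coupled on a sensor chip, rising compound concentrations by single cycle kinetics, Kd from global fit of interaction models.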

Row | SMILES | microsomal CLint [1] [µL/min/mg] | rHeps CLint (Rat Hepatocytes (rHep)) [μL/min/1E6] | solubility (Kinetic solubility) [µM] | IC50 [2] [nM] | Kd (hFAP (M39-A757)) [nM] | IC50 (hFAP) [nM]
1 | N#C[C@@H]1CSCN1C(=O)CNC(=O)c1ccnc2ccc(OCC3CC(F)(F)C3)cc12 [Example 8, (R)—N-(2-(4-Cyanothiazolidin-3-yl)-2-oxoethyl)-6-((3,3-difluorocyclobutyl)methoxy)quinoline-4-carboxamide] | 45 | 11 | 8.3 (≈ 3.71 µg/mL) | 1200 |  | 
2 | N#C[C@@H]1CSCN1C(=O)CNC(=O)c1ccnc2ccc(C3(c4ccnc(C(F)(F)F)c4)CC3)cc12 [Example 13, (R)—N-(2-(4-Cyanothiazolidin-3-yl)-2-oxoethyl)-6-(1-(2-(trifluoromethyl)pyridin-4-yl)cyclopropyl)quinoline-4-carboxamide] | > 300 | 140 | 78 (≈ 39.9 µg/mL) | 460 | 0.12 | 
3 | CC1(c2ccc3nccc(C(=O)NCC(=O)N4CSC[C@H]4C#N)c3c2)CCOCC1 [Example 21, (R)—N-(2-(4-Cyanothiazolidin-3-yl)-2-oxoethyl)-6-(4-methyl-tetrahydro-2H-pyran-4-yl)quinoline-4-carboxamide] | 100 | 7.9 | 500 (≈ 212 µg/mL) | 8.3 | 140 | 
4 | N#C[C@@H]1CSCN1C(=O)CNC(=O)c1ccnc2ccc(OCC(F)F)cc12 [Example 2, (R)—N-(2-(4-Cyanothiazolidin-3-yl)-2-oxoethyl)-6-(2,2-difluoroethoxy)quinoline-4-carboxamide] | 36 | 5.9 | 490 (≈ 199 µg/mL) | 190 | 0.052 | 
5 | Cc1ccc(C2(c3ccc4nccc(C(=O)NCC(=O)N5CSC[C@H]5C#N)c4c3)CC2)cn1 [Example 43, (R)—N-(2-(4-Cyanothiazolidin-3-yl)-2-oxoethyl)-6-(1-(6-methylpyridin-3-yl)cyclopropyl)quinoline-4-carboxamide] | 100 | 78 | 60 (≈ 27.5 µg/mL) | 370 | 0.39 | 0.094
6 | Cc1cc(C2(c3ccc4nccc(C(=O)NCC(=O)N5CSC[C@H]5C#N)c4c3)CC2)no1 [Example 45, (R)—N-(2-(4-Cyanothiazolidin-3-yl)-2-oxoethyl)-6-(1-(5-methylisoxazol-3-yl)cyclopropyl)quinoline-4-carboxamide] | 70 | 21 | 250 (≈ 112 µg/mL) | 150 | 0.13 | 
7 | N#C[C@@H]1CSCN1C(=O)CNC(=O)c1ccnc2ccc(OC(CF)CF)cc12 [Example 7, (R)—N-(2-(4-Cyanothiazolidin-3-yl)-2-oxoethyl)-6-((1,3-difluoropropan-2-yl)oxy)quinoline-4-carboxamide] | 40 | 9.1 | 550 (≈ 231 µg/mL) | 150 |  | 
8 | CC(c1ccc2nccc(C(=O)NCC(=O)N3CSC[C@H]3C#N)c2c1)c1ccc(Cl)cn1 (mixture of isomers) [Example 48, 6-((RS)-1-(5-Chloropyridin-2-yl)ethyl)-N-(2-((R)-4-cyanothiazolidin-3-yl)-2-oxoethyl)quinoline-4-carboxamide] | > 300 | 27 | 240 (≈ 112 µg/mL) | 240 | 0.12 | 

More lines, now with the values ahead:

Row | microsomal CLint [1] [µL/min/mg] | rHeps CLint (Rat Hepatocytes (rHep)) [μL/min/1E6] | solubility (Kinetic solubility) [µM] | IC50 [2] [nM] | Kd (hFAP (M39-A757)) [nM] | IC50 (hFAP) [nM] | SMILES
9 | 77 | 23 | > 1000 | 640 |  |  | CC1(C)CC(c2ccc3nccc(C(=O)NCC(=O)N4CSC[C@H]4C#N)c3c2)CO1 (mixture of isomers) [Example 61, N-(2-((R)-4-Cyanothiazolidin-3-yl)-2-oxoethyl)-6-(5,5-dimethyltetrahydrofuran-3-yl)quinoline-4-carboxamide]
10 | 46 | 24 | 220 (≈ 95.8 µg/mL) | 110 | 0.13 |  | Cc1cc(C(C)c2ccc3nccc(C(=O)NCC(=O)N4CSC[C@H]4C#N)c3c2)on1 (mixture of isomers) [Example 49, N-(2-((R)-4-Cyanothiazolidin-3-yl)-2-oxoethyl)-6-((RS)-1-(3-methylisoxazol-5-yl)ethyl)quinoline-4-carboxamide]
11 | 58 | 44 | 470 (≈ 172 µg/mL) | 38 | 1.4 | 0.59 | N#C[C@@H]1CSCN1C(=O)CNC(=O)c1ccnc2ccc(C3CC3)cc12 [Example 77, (R)—N-(2-(4-Cyanothiazolidin-3-yl)-2-oxoethyl)-6-cyclopropylquinoline-4-carboxamide]
12 | > 300 | 110 | 180 (≈ 78 µg/mL) | 290 |  |  | N#C[C@@H]1CSCN1C(=O)CNC(=O)c1ccnc2ccc(C3(C#N)CCCCC3)cc12 [Example 60, (R)-6-(1-Cyanocyclohexyl)-N-(2-(4-cyanothiazolidin-3-yl)-2-oxoethyl)quinoline-4-carboxamide]
13 | 77 | 17 | 700 (≈ 296 µg/mL) | 64 |  |  | N#C[C@@H]1CSCN1C(=O)CNC(=O)c1ccnc2ccc(CCC(F)(F)F)cc12 [Example 58, (R)—N-(2-(4-Cyanothiazolidin-3-yl)-2-oxoethyl)-6-(3,3,3-trifluoropropyl)quinoline-4-carboxamide]
14 | 36 | 45 | 190 (≈ 76.8 µg/mL) | 6.5 |  |  | CC(F)(F)Cc1ccc2nccc(C(=O)NCC(=O)N3CSC[C@H]3C#N)c2c1 [Example 53, (R)—N-(2-(4-Cyanothiazolidin-3-yl)-2-oxoethyl)-6-(2,2-difluoropropyl)quinoline-4-carboxamide]
15 | 210 | 49 | 120 (≈ 59.9 µg/mL) | 320 | 0.2 |  | CC(c1ccnc(C(F)(F)F)c1)c1ccc2nccc(C(=O)NCC(=O)N3CSC[C@H]3C#N)c2c1 (mixture of isomers) [Example 52, N-(2-((R)-4-Cyanothiazolidin-3-yl)-2-oxoethyl)-6-((RS)-1-(2-(trifluoromethyl)pyridin-4-yl)ethyl)quinoline-4-carboxamide]
